Tests used:
Plasmodium falciparum [1] = test: NOVARTIS: Inhibition of Plasmodium falciparum 3D7 (drug-susceptible) proliferation in erythrocyte-based infection assay; format: functional, organism-based; settings: Plasmodium falciparum, 3D7
Plasmodium falciparum [2] = test: NOVARTIS: Inhibition of Plasmodium falciparum W2 (drug-resistant) proliferation in erythrocyte-based infection assay; format: functional, organism-based; settings: Plasmodium falciparum, W2; read-out: EC50
[3] = NOVARTIS: Cytotoxicity against human hepatocellular carcinoma cell line (Huh7); format: toxicity, cell-based, Huh-7; settings: Huh7 cells (hepatocellular carcinoma cell line)

| SMILES | EC50 (Plasmodium falciparum [1]) [µM] | EC50 (Plasmodium falciparum [2]) [µM] | CC50 [3] [µM] |
| --- | --- | --- | --- |
| OC(CNC1CCCCC1)Cn1c2ccc(Br)cc2c2cc(Br)ccc21 (stereo not drawn) | 0.451 | 0.102 | 6.06 |
| CCCCCCCC(=O)N1CCN(CCN(Cc2ccc(F)cc2)C(=O)c2c(-c3c(F)cccc3Cl)noc2C)CC1 | 1.76 | 1.67 | > 100 |
| CC(C)NCC(O)Cn1c2ccc(Br)cc2c2cc(Br)ccc21 (stereo not drawn) | 0.216 | 0.0544 | 3.36 |
| Nc1ccc(-c2nc3cc(Oc4ccc5[nH]c(-c6ccc(N)cc6)nc5c4)ccc3[nH]2)cc1 | 0.683 | 0.357 | 21.4 |
| COCCN1C(=O)C(O)=C(C(=O)c2ccccc2)C1c1ccccc1[N+](=O)[O-] (stereo not drawn) | > 12.5 | 1.71 | > 100 |
| COc1cc2c(c(OC)c1CN1CCN(c3ccccc3)CC1)C(=O)c1ccccc1C2=O | 0.131 | 0.166 | > 10 |
| C=C[C@H]1CN2CC[C@H]1C[C@H]2[C@H](OC(=O)CC)c1ccnc2ccccc12 | 0.364 | 0.166 | > 10 |
| N#Cc1c(-c2ccccc2)cc(N2CCN(Cc3ccc(Cl)cc3)CC2)n2c1nc1ccccc12 | 1.12 | 1.71 | > 100 |
| COc1ccc(C=CC(=O)Nc2ccc3nc(N4CCN(C)CC4)cc(C)c3c2)cc1OC | 0.708 | 0.946 | 55.2 |
| Clc1ccc(NCn2nnc3ccccc32)nc1 | > 8.2 | 1.69 | > 100 |
| c1ccc(Cn2nnnc2CN2CCN(C(c3ccccc3)c3ccccc3)CC2)cc1 | 2.87 | 1.67 | > 100 |
| CCOC(=O)c1c(C)n(-c2ccccc2)c2ccc(OC(=O)C3CC3)cc12 | 0.749 | 1.72 | > 100 |
| COCCNC(=O)C(c1ccc(C)cc1)N(Cc1ccccc1)C(=O)CCC(=O)Nc1nccs1 (stereo not drawn) | > 4.59 | 1.72 | > 100 |
| CN(CCCNc1ccnc2cc(Cl)ccc12)C(=O)CC(C)(C)C | 0.236 | 0.173 | > 10 |
| COc1ccc(-c2c[n+](Cc3ccc(Cl)c(Cl)c3)c3n2CCC3)cc1 | 0.537 | 0.858 | 49.7 |
| Cc1ccccc1C[n+]1cc(-c2ccc(Cl)cc2)n2c1CCC2 | 1.39 | 1.72 | > 100 |
| Nc1c(C(=O)Nc2ccc(F)cc2)sc2nc3c(c(-c4cccs4)c12)CCCC3 | 1.13 | 1.71 | > 100 |
| CCC(C)N1CCN(Cc2cccc(OC)c2OC)CC1 (stereo not drawn) | > 1.25 | > 0.169 | > 10 |
| O=C(Cn1c(=O)oc2cc(S(=O)(=O)N3CCCC3)ccc21)Nc1cccnc1 | > 0.951 | 0.169 | > 10 |
| CC(C)N(C(=O)Cn1ccc(=N)c2ccccc21)C(C)C | 1.24 | 1.65 | > 100 |
| CC(=O)N(C1=C(N2CCOCC2)C(=O)c2ccccc2C1=O)c1ccc(F)c(F)c1 | 0.0743 | 0.0575 | 3.48 |
| O=C1CN(C(=O)COC(=O)c2ccccc2NCCc2ccc(F)cc2)c2ccccc2N1 | 0.219 | 0.165 | > 10 |
| OCCNc1nc(Nc2ccc(Cl)c(Cl)c2)nc2ccccc12 | 0.14 | 0.154 | 9.4 |
| CCCCCc1ccc(OCCCC[n+]2cccc(C)c2)c(CCCCC)c1 | 0.713 | 0.336 | 20.5 |

| SMILES | EC50 (Plasmodium falciparum [1]) [µM] | EC50 (Plasmodium falciparum [2]) [µM] | CC50 [3] [µM] |
| --- | --- | --- | --- |
| O=[N+]([O-])c1ccc(N2CCN(C(=S)Nc3ccccc3)CC2)cc1 | 6.01 | 1.64 | > 100 |
| COc1ccc(CCNc2ncnc3c2[nH]c2ccccc23)cc1 | 0.299 | 0.401 | 24.9 |
| CCc1ccc2ncc(C(=O)OCCOC)c(O)c2c1 | 0.777 | 1.62 | > 100 |
| COc1nc(Nc2ccc(C(C)C)cc2)nc(OC)n1 | 0.677 | 0.935 | 56.9 |
| COc1nc(C)nc(NC(=O)NC(=O)c2c(OC)ccc([N+](=O)[O-])c2OC)n1 | > 0.266 | > 0.164 | > 10 |
| Nc1ccc(-c2nc3cc(Oc4ccc(Oc5ccc6[nH]c(-c7ccc(N)cc7)nc6c5)cc4)ccc3[nH]2)cc1 | 0.288 | 0.246 | 15 |
| Cc1ccc(-c2c[n+](-c3ccccc3)c3n2CCCS3)cc1 | 0.735 | 1.64 | > 100 |
| COC(=O)c1ccc(S(=O)(=O)N2CCC3(CC2)Nc2ccccc2-n2cccc23)cc1 | > 1.25 | > 0.163 | > 10 |
| Cc1nc(NCCCN(C)C)c2sc3nc4c(cc3c2n1)COC(C)(C)C4 | > 12.5 | 1.63 | > 100 |
| Cc1sc2sc(-c3ccccc3)c(N)[n+]2c1C | 1.05 | 1.63 | > 100 |
| CCN(CC)CCNc1ncnc2c1[nH]c1ccc(Br)cc12 | 0.288 | 0.318 | 19.5 |
| NCCNc1cc(-c2ccccc2)nc2ccccc12 | 0.318 | 0.375 | 23 |
| O=c1c2ccccc2nc2n1CCN2Cc1ccc(Cl)cc1 | 1.61 | 1.63 | > 100 |
| COc1cccc(OC)c1C(=O)NCCCCNc1ccnc2cc(Cl)ccc12 | 0.449 | 0.198 | > 12.2 |
| CCOC(=O)C(=CNc1ccccc1[N+](=O)[O-])C(=O)OCC | 7.99 | 1.73 | > 100 |
| Cc1cc2c(cc1C)-c1c(ssc1=Nc1cccc(C)c1C)C(C)(C)N2 | 8.59 | 1.62 | > 100 |
| Cc1nc2ccccc2c(=O)n1NC(=O)c1cccc([N+](=O)[O-])c1 | 0.141 | 1.61 | > 100 |
| O=c1cccc2n1CC1CC2CN(Cc2cccc(O)c2)C1 (stereo not drawn) | > 12.5 | 1.7 | > 100 |
| CC(C)(C)CC(C)(C)Nc1c(-c2ccccc2OC(=O)C(c2ccccc2)c2ccccc2)nc2ccccn12 | 0.882 | 0.0365 | 2.15 |
| CCCC(C(=O)OCC)C(C)=NNc1ccccc1[N+](=O)[O-] (stereo not drawn) | 1.27 | 1.67 | > 100 |
| C[n+]1ccccc1/C=C/C1=C(c2ccccc2)Oc2ccccc2O1 | 0.133 | 0.249 | 14.9 |
| COC(=O)NCCNC(=O)COC(c1cccs1)c1cccnc1Cl (stereo not drawn) | 0.185 | 0.17 | > 10 |
| CC(C)N(CCNc1ncnc2c1[nH]c1ccc(Cl)cc12)C(C)C | 0.262 | 0.253 | 15.2 |
| O=C(CN1CCCC1)Nc1nc(-c2ccc3c(c2)CCN3S(=O)(=O)c2ccccc2)cs1 | 0.468 | 1.27 | > 76.2 |

| SMILES | EC50 (Plasmodium falciparum [1]) [µM] | EC50 (Plasmodium falciparum [2]) [µM] | CC50 [3] [µM] |
| --- | --- | --- | --- |
| CCOC(=O)c1ccc2c(c1)[n+](CC)c(/C=C/N(C)c1ccccc1)n2CC | 0.272 | 0.588 | 34.4 |
| Cc1ccc(NC(=O)N2CCN(C(=O)c3nc(-c4ccccc4)nc(C)c3C(=O)OC(C)C)CC2C)cc1 (stereo not drawn) | 0.441 | 0.171 | > 10 |
| CC(C)Cc1nc(N2CCOCC2)c2nnn(Cc3ccccc3)c2n1 | 3.03 | 1.65 | > 100 |
| CCOC(=O)c1sc(-c2cnccc2C(F)(F)F)nc1C | > 0.912 | 0.172 | > 10 |
| CCc1cccc(NC(=S)N2CCCC2c2ccccc2C(F)(F)F)c1 (stereo not drawn) | 0.408 | 0.17 | > 10 |
| CC(C)(C)c1ccc(-c2nc(C34CC5CC(CC(C5)C3)C4)cs2)cc1 | > 12.5 | 1.65 | > 100 |
| COc1ccc(-c2cnc3ccc(NCc4cccc(Cl)c4)nn23)cn1 | 0.805 | 1.13 | 68.9 |
| CCCC(=O)NC(c1ccc(Cl)cc1)c1ccc2cccnc2c1O (stereo not drawn) | 0.288 | 0.171 | 10.3 |
| COc1ccc(S(=O)(=O)ON=C2C=C(C(C)C)C(=O)C=C2C)cc1 | 0.834 | 0.296 | 18.3 |
| OCCC1CN(Cc2cccc(Cl)c2)CCN1Cc1ccccc1 (stereo not drawn) | > 12.5 | 1.73 | > 100 |
| CC(C)CC(=O)N(C)CCCNc1ccnc2cc(Cl)ccc12 | 0.74 | 0.121 | 7.44 |
| Cn1c(=O)c2c(nc3n2CC(O)CN3c2ccccc2)n(C)c1=O (stereo not drawn) | 0.0726 | 0.162 | > 10 |
| Cc1ccc(NC2=C(c3ccc(C(F)(F)F)cc3)C(=O)c3ccccc32)cc1C | 1.24 | 1.69 | > 100 |
| Cc1cc(N2CCN(C3CCCC3)CC2)n2c(nc3ccccc32)c1C#N | 0.743 | 1.67 | > 100 |
| COc1ccccc1N(CN1C(=O)c2ccc(Br)cc2C1=O)C(C)=O | > 1.25 | > 0.171 | > 10 |
| CCC[n+]1cccc2ccc3cccnc3c21 | 0.21 | 0.756 | 44.3 |
| O=C(Nc1cc(Cl)cc(Cl)c1)C1C2C=CC3(O2)C1C(=O)N(CCC1=CCCCC1)C3C(=O)NC1CCCCC1 (stereo not drawn) | > 11 | 1.71 | > 100 |
| Cc1ccnc(NS(=O)(=O)c2ccc(NC(=O)C(C)C)cc2)n1 | > 6.15 | 1.69 | > 100 |
| c1ccc(Nc2nc(NCC3CCCO3)c3ccccc3n2)cc1 (stereo not drawn) | 0.114 | 0.169 | > 10 |
| Clc1ccc(OCc2nc3ccccc3n2CCc2ccccc2)cc1 | > 0.72 | 0.165 | > 10 |
| CSc1nc2sc3c(c2c(=O)n1-c1ccccc1)CCN(CCc1ccccc1)C3 | 0.859 | 1.14 | > 69.3 |
| CCCCCCCc1cc(O)c2c3c(c(=O)oc2c1)CCC(C)C3 (stereo not drawn) | 1.21 | 1.73 | > 100 |
| CC1=[N+](CC(=O)c2ccc(C)cc2)CCn2c(C)ccc21 | 1.05 | 1.66 | > 100 |

Source: ChEMBL document CHEMBL1156829 (Proc Natl Acad Sci U S A, 2008)
